The nature of data set [1]: Solubility test of crystal form B in different solvents. The settings on record: thermodynamic from solid; for solubility at 4 h: read-out: Solubility (mg/mL) 4 h; for solubility at 24 h: read-out: Solubility (mg/mL) 24 h. The format is physicochemical. As to the method: Solubility Test of Crystal Form B in Different Solvents Add 1^˜1.5 mg crystal form B of the compound 2 in volumetric flask, then single solvent or mixed solvent is added into the flask with multiple times until the solution become clear or solid particles disappear. The solubility of crystal form B in different solvents is determined thereby.

Data set [2] in a line: Solubility test of crystal form A in different solvents. The format is physicochemical. The settings on record: thermodynamic from solid. On the procedure:
Solubility Test of Crystal Form a in Different Solvents Add 1^˜1.5 mg crystal form A of the compound 1 in volumetric flask, then single solvent or mixed solvent is added into the flask with multiple times until the solution become clear or solid particles disappear. The solubility of crystal form A in different solvents is determined thereby.

For a further data set, the system named is HFMD virus EV71. Kind of data set: EV71 in-vitro cytopathic effect (CPE) test. The format is cell-based. The settings on record: Enterovirus A, EV71, 72 h; RD cells, 3 days, CCK8 readout; read-out: EC50 by EC71 CPE test, EV71. The source says:
Activity Evaluation In Vitro Experimental 1: Test of EV71 In-Vitro Cytopathic Effect (CPE) Purpose of Experiment: To test the in-vitro antiviral activity and cytotoxicity of a compound to HFMD virus EV71 by means of cytopathic effect (CPE) test. Test Materials: 1. Virus strain: Shenzhen/120F1/09 2. Cell line: RD cells of human rhabdomyoma 3. Cell culture media: DMEM medium added with 10% serum, Penicillin/Streptomycin and L-Glutannine (1^×) 4. Test reagent: cellular activity test reagent CCK8 Test Method: 1. Cell inoculation: digest off the RD cells from the attached state, then dilute them with culture medium to a density of 80000/ml and inoculate 100 μl into the micro wells of the 96-well plate. 2. Dilution of Compound: Step 1: prepare the dry powder of a compound to be tested into a 10 mM solution in DMSO. Then dilute the compound by three times to eight concentration points. Dilute the reference compounds with the same method. Step 2: further dilute the diluted solution of the compound in DMSO with cell culture medium. Add 10 μl DMSO solution for each well into 240 μl culture medium. 3. Add the diluted compound solution by 50 μl each well into the 96-well plate inoculated with cells (double holes, final concentration of DMSO is 1%). 4. […] Use ELIASA to read the absorbancy at the wavelength of 450 nm and 630 nm. […]
For orientation: Cytopathic effects are the visible damage that an infection or toxin causes in cultured cells.

Where [3] appears, read: aqueous buffer, pH 3.5 buffer solution.
Where [4] appears, read: aqueous buffer, pH 4.5 buffer solution.
The mark [5] stands for this setting: aqueous buffer, pH 5.5 buffer solution.
[6] abbreviates: aqueous buffer, pH 6.5 buffer solution.
[7] abbreviates: aqueous buffer, pH 6.8 buffer solution.
[8] abbreviates: aqueous buffer, pH 7.5 buffer solution.
Where [9] appears, read: saline or isotonic, normal saline.
Setting [10] is: simulated gastric fluid, 0.01N HCl.
Where [11] appears, read: simulated gastric fluid, 0.1N HCl.

Molecules are shown by their SMILES. pEC50: −log10 of the molar value. In brackets after ≈: the same amount, converted by molar mass. Read-outs that look alike come from different tables or passages of the source. Where only a bound is given, the exact number is not on record here.

For the compound `CCn1nnc(-c2ccc(OCCC(C)(C)CCN3CCN(c4ccnc(N)c4)S3(=O)=O)nc2)n1` [Compound 2], the solubility at 4 h in data set [1] (setting [3]) was 232 mg/mL (≈ 463 mM); in data set [1] (setting [4]), 6.12 mg/mL (≈ 12.2 mM); in data set [1] (setting [5]), below 0.1 mg/mL; in data set [1] (setting [6]) it was below 0.1 mg/mL; in data set [1] (setting [7]), below 0.1 mg/mL; in data set [1] (setting [8]), below 0.1 mg/mL. Also, the solubility at 4 h in data set [1] (setting [9]) was 42.9 mg/mL (≈ 85.5 mM); in data set [1] (setting [10]), above 998 mg/mL; in data set [1] (setting [11]), above 873 mg/mL; in data set [1] (water), 416 mg/mL (≈ 829 mM). In addition, the solubility at 24 h was 186 mg/mL (≈ 370 mM) in data set [1] (setting [3]); 4.54 mg/mL (≈ 9.05 mM) in data set [1] (setting [4]); below 0.1 mg/mL in data set [1] (setting [5]); below 0.1 mg/mL in data set [1] (setting [6]); below 0.1 mg/mL in data set [1] (setting [7]); below 0.1 mg/mL in data set [1] (setting [8]). In addition, the solubility at 24 h in data set [1] (setting [9]) is 43.4 mg/mL (≈ 86.6 mM); in data set [1] (setting [10]), above 986 mg/mL; in data set [1] (setting [11]), above 935 mg/mL; in data set [1] (water), 346 mg/mL (≈ 690 mM).

The term pEC50 denotes the EC50 on a negative log10 scale, so that one unit is a factor of ten. As for `CCn1nnc(-c2ccc(OCCC(C)(C)CCN3CCN(c4ccnc(N)c4)S3(=O)=O)nc2)n1` [Compound 1], the solubility is below 2240 µg/mL in data set [2] (aqueous with cosolvent or surfactant or cyclodextrin, solvent: Acetone-water (3:1)); below 2320 µg/mL in data set [2] (aqueous with cosolvent or surfactant or cyclodextrin, solvent: Ethanol-water (3:1)); below 2070 µg/mL in data set [2] (aqueous with cosolvent or surfactant or cyclodextrin, solvent: Methanol-water (3:1)); 11800 to 13200 µg/mL (≈ 23.5 to 26.3 mM) in data set [2] (organic solvent or mixture, solvent: 1,4-dioxane); below 2180 µg/mL in data set [2] (organic solvent or mixture, solvent: 2-Methyltetrahydrofuran); 5580 to 7430 µg/mL (≈ 11.1 to 14.8 mM) in data set [2] (organic solvent or mixture, solvent: acetone). The solubility in data set [2] (organic solvent or mixture, solvent: ethanol) was below 2090 µg/mL; in data set [2] (organic solvent or mixture, solvent: ethyl acetate), below 2130 µg/mL; in data set [2] (organic solvent or mixture, solvent: methanol), below 1980 µg/mL. Moreover, the pEC50 with HFMD virus EV71 was at least 8.00.
